Data taken from PMC3681751, “Identification of a Novel Antimicrobial Peptide from Human Hepatitis B Virus Core Protein Arginine-Rich Domain (ARD)” (PLoS Pathogens, 2013).
Like-named read-outs stand apart in the source and are kept apart here. Residues, ends and D or L forms follow the SMILES beside them.

What was measured:
[1] = system: C. albicans (ATCC 10231); type: cell-based, Candida albicans
Method: The antimicrobial activities of HBc ARD peptides were tested using a number of bacterial strains from ATCC, including Pseudomonas aeruginosa Migula strain (ATCC 27853, ampicillin-resistant), Pseudomonas aeruginosa Migula strain (ATCC 9027, ampicillin-resistant), Klebsiella pneumoniae strain (ATCC 17593), Escherichia coli strain (ATCC 25922), Staphylococcus aureus subsp. strain (ATCC 25923, methicillin-resistant), Staphylococcus aureus subsp. strain (ATCC 29213, methicillin-resistant), Staphylococcus aureus subsp. strain (ATCC 19636, methicillinresistant), and Candida albicans strain (ATCC 10231).
All peptides were purchased from Yao-Hong Biotechnology Inc. (Taipei, Taiwan). Vendors provided data of peptide characterizations, including HPLC and Mass (data not shown). Antimicrobial activity was determined as described with some modifications as detailed below. Bacteria were grown overnight in Mueller–Hinton broth (Difco) at 37°C, and during the mid-logarithmic phase, bacteria were diluted to 10^6 CFU (colony formation unit)/ml in phosphate buffer (10 mM sodium phosphate and 50 mM sodium chloride, pH 7.2). Peptides were serially diluted in the same buffer. Fifty microliter (µl) of bacteria was mixed with fifty µl of peptides at varying concentrations followed by incubation at 37°C for 3 hours without shaking. At the end of incubation, bacteria were placed on Mueller-Hinton broth agar plates, and allowed growth at 37°C overnight for measurement of minimal bactericidal concentration (MBC). […] All peptides were tested in triplicate.

[2] = system: K. pneumonia; test: Killing kinetics; type: cell-based, Klebsiella pneumoniae; conditions: 4 µM peptide, 37°C, triplicates
Method: For measurement of killing kinetics, bacteria and peptides were prepared as described above. Fifty µl of bacteria were mixed with fifty µl of peptides at the concentrations corresponding to MBC and were incubated at 37°C. At the indicated time, bacteria were serially diluted and placed on Mueller-Hinton broth agar plates for the viability measurement.

[3] = system: P. aeruginosa; test: Effect of added LPS on bactericidal activity; type: cell-based, Pseudomonas aeruginosa; conditions: 2 µM peptide (1×MBC), LPS from P. aeruginosa or E. coli at 50 µg/ml, 3 hours, triplicates
Method: To determine whether LPS of Gram-negative bacteria could serve as a potential target of HBc147-183, LPS (0.05 to 50 µg/ml) from either P. aeruginosa or E. coli (Sigma) were incubated with both P. aeruginosa and 2 µM HBc147-183 for three hours, respectively. […] In addition, HBc147-183 preferentially bound to the LPS from P. aeruginosa, rather than that from E. coli. However, the addition of anti-LPS antibody (Genetex Co.) cannot sufficiently neutralize the bactericidal activity of HBc147-183 (Figure 5). […] Alternatively, HBc147-183 and the anti-LPS polyclonal antibody used here could bind predominantly to two different epitopes on the LPS.
Figure 5 Dose response effects of LPS and LPS antibody (triangle) on the bactericidal activity of HBc147-183. LPS from P. aeruginosa (square) and E. coli (diamond), and LPS antibody (triangle) were mixed with P. aeruginosa and HBc147-183 (1×MBC) for 3 hours. The bacteria were then plated on MH agar for the measurement of viability. Samples were measured in triplicates.

[4] = system: human red blood cells (hRBCs); test: Hemolytic activity; type: cell-based; conditions: 10% hRBCs in PBS, 1 h at 37°C, absorbance 405 nm; 100% = 1% Triton X-100; triplicates
Method: The hemolytic activities of peptides were determined by hemolysis against human red blood cells (hRBCs). Human blood was obtained in EDTA-containing tube and was centrifuged at 450 g for 10 min. The pellet was washed three times with PBS buffer, and a solution of 10% hRBCs was prepared. hRBCs solution was mixed with serial dilutions of peptides in PBS buffer, and the reaction mixtures were incubated for 1 h at 37°C. After centrifugation at 450 g for 10 min, the percentage of hemolysis was determined by measuring the absorbance at the wavelength of 405 nm of the supernatant. Blank and 100% hemolysis were determined in PBS buffer and in the presence of 1% Triton X-100, respectively.

[5] = system: Vero cells; test: Cytotoxicity, MTT assay; type: cell-based, monkey; conditions: 1 hour at 37°C; HBc147-183 at 100 µM, melittin at 3.125 µM; triplicates
Method: Cytotoxicity was measured for HepG2, Huh7, HEK293, and Vero cells by MTT assay. Cells were seeded at 10^4 cells/well in a 96-well plate and serial dilutions of peptides were added into each well. PBS was used as a negative control and melittin was used as a positive control. After 1 hour of incubation, the medium were replaced by fresh medium containing 10% MTT solution (Promega), and the plate was incubated for 4 hours in 5% CO2 at 37°C. The absorbance at the wavelength of 595 nm was measured by an ELISA reader (Bio-Rad model 680).

[6] = system: HEK293 cells; test: CFSE cell proliferation assay; type: cell-based, human; conditions: 5, 25 and 100 µM for 1 hour; flow cytometry
Method: (§1) To set up CFSE cell proliferation assay, 293 cells (human kidney origin) and Vero cells (monkey kidney origin) were resuspended in PBS to a final concentration of 10^6 cells/ml, before incubation with 10 µM CFSE dye (CellTrace CFSE cell proliferation kit, Invitrogen) at 37°C for 10 min. To quench the staining, ice-old culture media were then added and incubated on ice for 5 min. Labeled cells were then pelleted and washed three times by fresh medium containing 10% FBS before seeding into six well plates at a density of 3.3×10^5cells/well. After 20 h, the medium was removed and incubated with fresh medium containing 5, 25 and 100 µM HBc 147-183 for one hour (FITC-labeled ARD peptide had been largely internalized in 10 minutes after the addition of ARD peptides to the medium of HepG2 cells). Forty-eight hours later, cells were harvested and analyzed by flow cytometry (FACSCanto, BD Bioscience).

[7] = system: Klebsiella pneumoniae Xen39; test: IVIS imaging of infected mice; type: in vivo; conditions: 10 mg/kg at 1 hour, imaged 4 hours post-inoculation; 10^7 cfu/mouse; n = 5; P<0.01 vs PBS
[8] = system: HepG2 cells; test: Peptide uptake into mammalian cells; type: cell-based, human; conditions: data not shown
Method: as §1

Question: Which “Antimicrobial activity, MBC” value ([1]; ATCC 10231, 3 h, pH 7.2) does the source give for `CC(C)[C@H](NC(=O)[C@@H](NC(=O)[C@@H](N)[C@@H](C)O)C(C)C)C(=O)N[C@@H](CCCNC(=N)N)C(=O)N[C@@H](CCCNC(=N)N)C(=O)N[C@@H](CCCNC(=N)N)C(=O)NCC(=O)N[C@@H](CCCNC(=N)N)C(=O)N[C@@H](CO)C(=O)N1CCC[C@H]1C(=O)N[C@@H](CCCNC(=N)N)C(=O)N[C@@H](CCCNC(=N)N)C(=O)N[C@@H](CCCNC(=N)N)C(=O)N[C@H](C(=O)N1CCC[C@H]1C(=O)N[C@@H](CO)C(=O)N1CCC[C@H]1C(=O)N[C@@H](CCCNC(=N)N)C(=O)N[C@@H](CCCNC(=N)N)C(=O)N[C@@H](CCCNC(=N)N)C(=O)N[C@@H](CCCNC(=N)N)C(=O)N[C@@H](CO)C(=O)N[C@@H](CCC(N)=O)C(=O)N[C@@H](CO)C(=O)N1CCC[C@H]1C(=O)N[C@@H](CCCNC(=N)N)C(=O)N[C@@H](CCCNC(=N)N)C(=O)N[C@@H](CCCNC(=N)N)C(=O)N[C@@H](CCCNC(=N)N)C(=O)N[C@@H](CO)C(=O)N[C@@H](CCC(N)=O)C(=O)N[C@@H](CO)C(=O)N[C@@H](CCCNC(=N)N)C(=O)N[C@@H](CCC(=O)O)C(=O)N[C@@H](CO)C(=O)N[C@@H](CCC(N)=O)C(=O)N[C@@H](CS)C(=O)O)[C@@H](C)O` [HBc147-183] (H-TVVRRRGRSPRRRTPSPRRRRSQSPRRRRSQSRESQC-OH; N-terminus and C-terminus assumed) here?
Answer: The value was roughly 8 µM.

Question: What about the “Antimicrobial activity, MBC” value ([1]; fungi, 3 h at 37°C in phosphate buffer pH 7.2, triplicate) of the same molecule?
Answer: Its value is roughly 36.7 µg/mL.

Question: And the “Time to complete killing” value [2]?
Answer: Its value is 180 min.

Question: What about the “Bactericidal activity in the presence of LPS” value [3] of the same molecule?
Answer: Its value is “significantly reduced”.

Question: And the Hemolysis [4]?
Answer: The Hemolysis was “no detectable hemolysis”.

Question: What about the “Cell viability / cytotoxicity (MTT)” value [5] of the same molecule?
Answer: The value was “low level of cytotoxicity”.

Question: What about the “Effect on cell proliferation (CFSE intensity, day 3 vs mock)” value [6] of the same molecule?
Answer: The value was “no significant effect”.

Question: What about the “Bioluminescence of infected mice” value [7] of the same molecule?
Answer: The value was “very weak”.

Question: And the “Penetration through the cell membrane” value [8]?
Answer: Its value is “can penetrate through the cell membrane”.
